In ChEMBL document CHEMBL1201862, “PubChem BioAssay data set” (2004):
The source made the active and inactive calls.

Experiments:
Nonstructural protein 1 = Nonstructural protein 1 (Influenza A virus, UniProt Q194T2); assay type: functional, Influenza A virus (A/California/07/2009(H1N1))
[1] = molecular target: 72 kDa type IV collagenase (Homo sapiens, UniProt P08253); assay: Dose Response validation of uHTS RPN11 inhibitor hits using a MMP-2 Fluorescence assay.; assay type: functional
[2] = molecular target: 26S proteasome non-ATPase regulatory subunit 14 (Homo sapiens, UniProt O00487); assay: inhibition of proteasome subunit RPN11 – biochemical, fluorescence polarization, uHTS hits, confirmation (AID 602368); assay type: functional
Sequence of 26S proteasome non-ATPase regulatory subunit 14 (O00487 whole entry): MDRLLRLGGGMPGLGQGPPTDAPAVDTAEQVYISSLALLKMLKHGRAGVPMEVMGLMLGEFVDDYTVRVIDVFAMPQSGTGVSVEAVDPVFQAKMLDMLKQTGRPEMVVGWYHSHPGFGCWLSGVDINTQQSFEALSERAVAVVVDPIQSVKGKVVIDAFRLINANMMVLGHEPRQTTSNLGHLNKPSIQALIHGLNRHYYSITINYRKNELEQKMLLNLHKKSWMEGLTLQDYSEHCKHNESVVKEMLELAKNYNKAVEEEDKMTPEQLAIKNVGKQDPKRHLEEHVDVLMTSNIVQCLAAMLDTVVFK

Prothrombin = Prothrombin (Bos taurus, UniProt P00735); assay: thrombin inhibition, dose response, biochemical, fluorescence polarization, uHTS hits (AID 602369); assay type: functional
Protein Wnt-3a = Protein Wnt-3a (Mus musculus, UniProt P27467); assay: Wnt3a-driven reporter signaling inhibition, dose response, selectivity assay for Gli-SUFU antagonist project, Wnt-LIGHT cells, luminescence (AID 651570); assay type: functional; details: read-out: IC50_Mean;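 also: Wnt-LIGHT reporter cells stimulated with conditioned medium from Wnt3a-producing cells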
Sequence of Protein Wnt-3a (P27467 whole entry): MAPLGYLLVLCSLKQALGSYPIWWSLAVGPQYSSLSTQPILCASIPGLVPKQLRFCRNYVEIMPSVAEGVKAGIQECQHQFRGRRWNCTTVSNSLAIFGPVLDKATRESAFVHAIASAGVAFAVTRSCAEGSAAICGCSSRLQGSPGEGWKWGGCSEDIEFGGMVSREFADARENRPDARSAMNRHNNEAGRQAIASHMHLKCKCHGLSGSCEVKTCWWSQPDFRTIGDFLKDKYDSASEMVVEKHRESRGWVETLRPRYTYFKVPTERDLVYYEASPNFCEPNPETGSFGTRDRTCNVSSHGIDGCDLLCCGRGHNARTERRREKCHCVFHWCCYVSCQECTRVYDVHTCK

[3] = HepG2 cell cytotoxicity, dose response, cytotoxicity control for Shn3 inhibitor project, CellTiter-Glo, cherry-picked (AID 624134); assay type: functional, cell-based
[4] = control 3'UTR Renilla luciferase suppression, dose response, counter-screen for Shn3 inhibitor project, cell-based, Clone20-Shn3RL, cherry-picked (AID 624133); assay type: functional
[5] = nonselective inhibitors of cellular cAMP signaling, dose response, counter-screen for MC4R biased antagonist project, cell-based, TR-FRET cAMP detection (AID 602305); assay type: functional;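 also: U2OS cells stimulated with forskolin near its EC80 as the cAMP inducer; potency is for inhibition of forskolin-stimulated cAMP signaling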
Melanocortin receptor 4 = Melanocortin receptor 4 (Homo sapiens, UniProt P32245); assay: MC4R antagonist potency on cAMP, dose response, cell-based, TR-FRET, biased antagonists (AID 602298); assay type: functional;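 also: antagonist potency against agonist-stimulated cAMP production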
Sequence of Melanocortin receptor 4 (P32245 whole entry): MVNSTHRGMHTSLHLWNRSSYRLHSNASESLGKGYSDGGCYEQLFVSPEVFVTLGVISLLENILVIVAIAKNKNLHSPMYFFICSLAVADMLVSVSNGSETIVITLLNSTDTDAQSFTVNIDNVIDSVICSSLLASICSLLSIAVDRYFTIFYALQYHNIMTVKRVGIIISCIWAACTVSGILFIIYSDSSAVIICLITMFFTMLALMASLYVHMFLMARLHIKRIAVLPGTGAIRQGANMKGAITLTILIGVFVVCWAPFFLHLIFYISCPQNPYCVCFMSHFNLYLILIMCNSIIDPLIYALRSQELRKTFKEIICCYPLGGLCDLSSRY

[6] = Shn3 3'UTR reporter inhibitors, dose response, cell-based, Clone20 osteoblasts, firefly luciferase, cherry-picked (AID 624132); assay type: functional;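 also: firefly luciferase luminescence from reporter carrying the Shn3 3'UTR in osteoblasts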
[7] = molecular target: Apoptotic protease-activating factor 1 (Homo sapiens, UniProt O14727); assay type: functional
Sequence of Apoptotic protease-activating factor 1 (O14727 whole entry): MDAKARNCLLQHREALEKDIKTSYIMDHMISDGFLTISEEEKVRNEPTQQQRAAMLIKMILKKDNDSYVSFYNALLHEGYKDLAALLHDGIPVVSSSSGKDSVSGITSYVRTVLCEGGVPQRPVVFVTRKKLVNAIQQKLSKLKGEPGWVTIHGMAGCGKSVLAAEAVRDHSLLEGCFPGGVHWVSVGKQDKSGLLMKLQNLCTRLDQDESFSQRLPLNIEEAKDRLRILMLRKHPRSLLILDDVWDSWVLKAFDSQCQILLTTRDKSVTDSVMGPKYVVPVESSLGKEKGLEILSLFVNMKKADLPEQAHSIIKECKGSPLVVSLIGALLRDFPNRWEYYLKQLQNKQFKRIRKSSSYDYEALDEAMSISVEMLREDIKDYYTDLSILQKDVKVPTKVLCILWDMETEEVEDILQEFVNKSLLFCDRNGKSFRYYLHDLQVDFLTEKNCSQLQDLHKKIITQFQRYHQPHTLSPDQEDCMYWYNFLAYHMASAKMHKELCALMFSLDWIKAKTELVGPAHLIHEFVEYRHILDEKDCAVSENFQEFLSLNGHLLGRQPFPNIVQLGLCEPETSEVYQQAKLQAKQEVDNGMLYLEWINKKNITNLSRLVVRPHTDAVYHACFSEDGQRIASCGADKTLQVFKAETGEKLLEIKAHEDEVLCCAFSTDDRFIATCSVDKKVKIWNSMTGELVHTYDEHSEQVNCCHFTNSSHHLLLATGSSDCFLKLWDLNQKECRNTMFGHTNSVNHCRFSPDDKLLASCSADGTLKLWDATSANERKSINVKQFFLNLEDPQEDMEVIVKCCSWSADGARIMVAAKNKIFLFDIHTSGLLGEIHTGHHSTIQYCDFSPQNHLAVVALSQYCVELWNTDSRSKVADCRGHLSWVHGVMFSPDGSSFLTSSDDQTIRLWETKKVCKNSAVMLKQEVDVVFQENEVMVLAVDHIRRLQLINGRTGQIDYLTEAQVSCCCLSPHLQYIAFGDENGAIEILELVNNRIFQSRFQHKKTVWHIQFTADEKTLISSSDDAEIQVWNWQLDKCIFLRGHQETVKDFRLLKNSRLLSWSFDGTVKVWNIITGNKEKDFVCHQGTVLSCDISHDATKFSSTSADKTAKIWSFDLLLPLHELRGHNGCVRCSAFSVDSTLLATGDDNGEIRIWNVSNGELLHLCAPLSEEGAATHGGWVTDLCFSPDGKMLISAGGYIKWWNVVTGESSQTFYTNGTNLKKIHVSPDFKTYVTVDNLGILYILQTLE

[8] = molecular target: Ras and Rab interactor 1/Tyrosine-protein kinase ABL1 (Homo sapiens, UniProt P00519+Q13671); assay type: functional;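 also: biochemical TR-FRET dose-response test measuring inhibition of binding between Rin1 and Abl proteins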
[9] = molecular target: T1, Histone-lysine N-methyltransferase NSD2 (Homo sapiens, UniProt O96028); assay type: biochemical
T1 sequence (O96028 whole entry): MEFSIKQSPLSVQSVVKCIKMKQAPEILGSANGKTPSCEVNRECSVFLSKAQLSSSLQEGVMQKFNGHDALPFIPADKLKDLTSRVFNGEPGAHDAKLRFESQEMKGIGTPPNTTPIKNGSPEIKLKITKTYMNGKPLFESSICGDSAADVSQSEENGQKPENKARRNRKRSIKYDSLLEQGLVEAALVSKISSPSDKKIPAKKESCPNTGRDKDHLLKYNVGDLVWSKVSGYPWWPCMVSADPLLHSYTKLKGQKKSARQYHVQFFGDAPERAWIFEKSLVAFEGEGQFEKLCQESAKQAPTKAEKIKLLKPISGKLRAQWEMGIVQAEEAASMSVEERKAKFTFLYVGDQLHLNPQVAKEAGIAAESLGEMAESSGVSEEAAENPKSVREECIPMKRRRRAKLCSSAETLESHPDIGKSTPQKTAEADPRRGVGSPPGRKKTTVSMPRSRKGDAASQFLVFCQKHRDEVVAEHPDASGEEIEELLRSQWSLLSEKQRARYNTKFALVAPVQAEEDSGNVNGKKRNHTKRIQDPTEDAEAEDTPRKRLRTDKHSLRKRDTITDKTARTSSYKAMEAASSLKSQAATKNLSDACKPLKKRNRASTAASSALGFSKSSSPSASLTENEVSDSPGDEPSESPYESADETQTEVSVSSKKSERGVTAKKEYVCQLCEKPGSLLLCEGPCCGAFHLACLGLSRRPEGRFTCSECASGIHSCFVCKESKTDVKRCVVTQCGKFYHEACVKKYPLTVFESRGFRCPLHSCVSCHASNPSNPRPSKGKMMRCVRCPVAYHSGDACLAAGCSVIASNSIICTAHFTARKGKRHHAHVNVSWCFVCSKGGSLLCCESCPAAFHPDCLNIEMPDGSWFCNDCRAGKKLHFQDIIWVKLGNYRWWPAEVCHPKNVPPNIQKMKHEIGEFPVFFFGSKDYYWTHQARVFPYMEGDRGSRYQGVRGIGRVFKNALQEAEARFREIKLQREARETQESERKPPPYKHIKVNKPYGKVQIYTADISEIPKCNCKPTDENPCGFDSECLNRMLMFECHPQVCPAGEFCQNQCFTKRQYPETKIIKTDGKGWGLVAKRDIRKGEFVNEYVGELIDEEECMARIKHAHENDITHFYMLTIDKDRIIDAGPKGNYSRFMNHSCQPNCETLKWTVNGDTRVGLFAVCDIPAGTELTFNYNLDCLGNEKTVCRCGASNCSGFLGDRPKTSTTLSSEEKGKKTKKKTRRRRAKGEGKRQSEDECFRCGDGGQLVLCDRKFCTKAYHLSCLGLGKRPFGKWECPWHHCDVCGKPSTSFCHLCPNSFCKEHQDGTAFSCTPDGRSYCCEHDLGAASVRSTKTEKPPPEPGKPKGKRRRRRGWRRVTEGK

[10] = molecular target: DNA repair and recombination protein RAD54-like (Homo sapiens, UniProt Q92698); assay: inhibitors of human RAD54 branch migration, confirmation, biochemical, fluorescence, cherry-picked samples, dose series (AID 651657); assay type: functional
Sequence of DNA repair and recombination protein RAD54-like (Q92698 whole entry): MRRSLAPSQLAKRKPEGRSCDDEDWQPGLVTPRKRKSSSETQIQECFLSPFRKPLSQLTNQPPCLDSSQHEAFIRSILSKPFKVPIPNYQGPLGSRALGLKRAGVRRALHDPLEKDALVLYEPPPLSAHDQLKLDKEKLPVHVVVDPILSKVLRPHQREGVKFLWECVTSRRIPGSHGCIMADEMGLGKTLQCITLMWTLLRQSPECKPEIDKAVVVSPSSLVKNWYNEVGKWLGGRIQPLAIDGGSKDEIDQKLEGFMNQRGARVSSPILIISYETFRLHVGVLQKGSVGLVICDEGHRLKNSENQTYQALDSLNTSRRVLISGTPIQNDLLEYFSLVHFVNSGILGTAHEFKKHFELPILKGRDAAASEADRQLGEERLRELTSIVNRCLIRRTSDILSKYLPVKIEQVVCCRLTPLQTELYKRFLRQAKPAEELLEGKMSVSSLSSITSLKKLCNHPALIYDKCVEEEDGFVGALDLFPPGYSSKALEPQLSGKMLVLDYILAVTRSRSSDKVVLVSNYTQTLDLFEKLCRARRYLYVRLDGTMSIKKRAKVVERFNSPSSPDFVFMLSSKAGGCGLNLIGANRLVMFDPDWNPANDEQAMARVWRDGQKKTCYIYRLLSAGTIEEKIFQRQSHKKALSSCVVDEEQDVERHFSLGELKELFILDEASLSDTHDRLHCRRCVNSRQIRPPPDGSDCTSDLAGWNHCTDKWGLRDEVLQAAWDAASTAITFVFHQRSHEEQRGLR

[11] = molecular target: T2, Rac GTPase-activating protein 1 (Homo sapiens, UniProt Q9H0H5); assay: MgcRacGAP GTPase-activating activity inhibitors, confirmation, biochemical, ADP Hunter fluorescence, primary and confirmatory (AID 624330); assay type: functional
T2 sequence (Q9H0H5 whole entry): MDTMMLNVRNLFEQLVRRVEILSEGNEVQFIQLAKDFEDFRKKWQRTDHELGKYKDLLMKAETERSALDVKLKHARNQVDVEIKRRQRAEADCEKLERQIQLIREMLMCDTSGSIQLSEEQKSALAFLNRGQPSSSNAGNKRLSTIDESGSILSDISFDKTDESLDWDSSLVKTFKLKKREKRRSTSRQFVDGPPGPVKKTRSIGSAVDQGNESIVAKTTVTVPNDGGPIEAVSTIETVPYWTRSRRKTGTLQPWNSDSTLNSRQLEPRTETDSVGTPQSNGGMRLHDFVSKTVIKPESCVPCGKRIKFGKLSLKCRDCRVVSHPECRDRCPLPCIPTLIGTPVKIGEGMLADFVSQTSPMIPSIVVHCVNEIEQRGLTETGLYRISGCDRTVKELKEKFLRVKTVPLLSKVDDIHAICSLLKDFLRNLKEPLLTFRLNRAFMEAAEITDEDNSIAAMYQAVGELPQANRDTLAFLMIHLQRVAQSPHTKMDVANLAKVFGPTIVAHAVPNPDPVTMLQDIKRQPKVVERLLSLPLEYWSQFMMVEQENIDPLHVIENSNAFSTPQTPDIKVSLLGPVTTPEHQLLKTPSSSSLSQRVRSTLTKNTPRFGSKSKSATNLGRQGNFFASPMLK

[12] = molecular target: Long-chain-fatty-acid--AMP ligase FadD28 (Mycobacterium tuberculosis, UniProt P9WQ59); assay: Fluorescence polarization aasay to screen for inhibitors that compete for the binding of FadD28 to a bisubstrate Measured in Biochemical System Using Plate Reader - 2147-01_Inhibitor_Dose_CherryPick_Activity.; assay type: functional, Mycobacterium tuberculosis H37Rv
Sequence of Long-chain-fatty-acid--AMP ligase FadD28 (P9WQ59 whole entry): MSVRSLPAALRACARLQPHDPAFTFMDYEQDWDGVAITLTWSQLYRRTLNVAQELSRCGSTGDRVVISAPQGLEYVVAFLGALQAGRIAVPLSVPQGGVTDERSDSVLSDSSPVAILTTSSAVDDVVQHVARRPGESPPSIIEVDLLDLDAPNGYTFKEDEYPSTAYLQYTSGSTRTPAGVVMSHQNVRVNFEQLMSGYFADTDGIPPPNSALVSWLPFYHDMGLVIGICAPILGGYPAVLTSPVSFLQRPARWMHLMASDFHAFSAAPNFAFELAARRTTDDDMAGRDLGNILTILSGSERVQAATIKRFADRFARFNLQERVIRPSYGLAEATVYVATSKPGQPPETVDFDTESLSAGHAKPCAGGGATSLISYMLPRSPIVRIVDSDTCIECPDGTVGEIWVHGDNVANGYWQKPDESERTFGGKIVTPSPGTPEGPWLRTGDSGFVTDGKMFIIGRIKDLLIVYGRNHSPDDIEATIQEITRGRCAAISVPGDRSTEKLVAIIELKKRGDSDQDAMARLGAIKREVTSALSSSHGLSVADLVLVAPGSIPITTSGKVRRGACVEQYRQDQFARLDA

[13] = molecular target: T3, Methionyl-tRNA synthetase, putative (Trypanosoma brucei brucei, UniProt Q38C91); assay type: functional, Trypanosoma brucei brucei strain 927/4 GUTat10.1
T3 sequence (Q38C91 whole entry): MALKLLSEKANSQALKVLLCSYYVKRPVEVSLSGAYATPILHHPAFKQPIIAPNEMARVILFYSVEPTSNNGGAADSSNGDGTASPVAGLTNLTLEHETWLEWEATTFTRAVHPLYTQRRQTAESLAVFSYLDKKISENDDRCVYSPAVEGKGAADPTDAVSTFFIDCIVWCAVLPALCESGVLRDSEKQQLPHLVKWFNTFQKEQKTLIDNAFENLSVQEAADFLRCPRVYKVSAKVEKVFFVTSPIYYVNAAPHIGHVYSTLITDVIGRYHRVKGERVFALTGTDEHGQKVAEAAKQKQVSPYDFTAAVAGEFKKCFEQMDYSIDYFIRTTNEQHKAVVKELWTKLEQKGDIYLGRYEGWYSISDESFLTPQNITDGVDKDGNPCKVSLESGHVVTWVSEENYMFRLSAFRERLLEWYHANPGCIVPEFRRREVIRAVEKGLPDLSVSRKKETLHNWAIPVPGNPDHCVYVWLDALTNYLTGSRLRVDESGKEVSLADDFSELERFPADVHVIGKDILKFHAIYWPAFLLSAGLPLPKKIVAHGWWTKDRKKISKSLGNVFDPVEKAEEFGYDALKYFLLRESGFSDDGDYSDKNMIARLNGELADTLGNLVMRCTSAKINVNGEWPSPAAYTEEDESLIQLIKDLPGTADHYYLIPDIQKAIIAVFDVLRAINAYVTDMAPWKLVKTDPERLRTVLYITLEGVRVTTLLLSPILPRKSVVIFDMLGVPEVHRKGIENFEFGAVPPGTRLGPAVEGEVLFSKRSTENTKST

[14] = Late stage counterscreen for inhibitors of Trypanosoma brucei methionyl tRNA synthetase (MetRS): Luminescence-based cell-based high throughput dose response assay to identify compounds that are cytotoxic to Jurkat human T lymphocyte cells.; assay type: functional
[15] = molecular target: T3, Methionyl-tRNA synthetase, putative; assay type: functional, Trypanosoma brucei brucei strain 927/4 GUTat10.1; remark: listed apart in the source
[16] = Counterscreen for inhibitors of Trypanosoma brucei methionyl tRNA synthetase (MetRS): Luminescence-based cell-based high throughput dose response assay to identify compounds that are cytotoxic to Jurkat human T lymphocyte cells.; assay type: functional
Beta Lactamase = Beta Lactamase (Pseudomonas aeruginosa, UniProt Q932Y6); assay: beta-lactamase reporter inhibitor potency, dose response, artefact control for NOD2-RIPK2 interaction inhibitor project, BLA reporter cells, FRET fluorescence (AID 651552); assay type: functional, cell-based
Sequence of Beta Lactamase (Q932Y6 whole entry): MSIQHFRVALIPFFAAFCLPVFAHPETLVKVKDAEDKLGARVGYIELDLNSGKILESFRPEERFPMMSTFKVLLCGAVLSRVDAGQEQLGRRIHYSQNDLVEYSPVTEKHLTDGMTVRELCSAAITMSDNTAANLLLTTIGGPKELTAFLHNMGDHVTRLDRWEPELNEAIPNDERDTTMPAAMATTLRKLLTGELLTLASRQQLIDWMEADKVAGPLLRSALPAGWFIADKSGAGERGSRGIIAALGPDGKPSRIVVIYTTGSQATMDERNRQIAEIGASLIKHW

[17] = growth suppression of beta-catenin-knockout colon cells, dose response, cell-based, HCT116, human colon tumor (AID 1045); assay type: functional;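 also: HCT116 colon tumor cells with beta catenin knocked out; cells exposed to compound for 60 hours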
[18] = growth suppression of PTEN-null colon cells, dose response, cell-based, HCT116 PTEN knockout (AID 1047); assay type: functional;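 also: HCT116 colon tumor cells with PTEN knocked out; cells exposed to compound for 60 hours before readout; potency for loss of cell viability measured by luminescence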
[19] = molecular target: Heat shock protein HSP 90-alpha (Homo sapiens, UniProt P07900); assay type: functional, organism-based
INS1 = assay: beta cell apoptosis inhibitors, cytokine rescue, dose response, luminescence, retest (AID 449756); assay type: functional, cell-based; details: Rattus norvegicus, INS1;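 also: cell death triggered by IL-1 beta plus TNF-alpha plus IFN-gamma mixture; protective hits raise ATP signal compared with cytokine alone wells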
[20] = Fluorescence-based cell-based high throughput dose response assay for inhibitors of the interaction of nucleotide-binding oligomerization domain containing 2 (NOD2) and the receptor-interacting serine-threonine kinase 2 (RIPK2).; assay type: functional; details: Homo sapiens
[21] = molecular target: T4, Mannose-6-phosphate isomerase (Homo sapiens, UniProt P34949); assay: human PMI inhibitors, high substrate, primary screen, biochemical, fluorescence intensity, high mannose 6-phosphate (AID 1220)
T4 sequence (P34949 whole entry): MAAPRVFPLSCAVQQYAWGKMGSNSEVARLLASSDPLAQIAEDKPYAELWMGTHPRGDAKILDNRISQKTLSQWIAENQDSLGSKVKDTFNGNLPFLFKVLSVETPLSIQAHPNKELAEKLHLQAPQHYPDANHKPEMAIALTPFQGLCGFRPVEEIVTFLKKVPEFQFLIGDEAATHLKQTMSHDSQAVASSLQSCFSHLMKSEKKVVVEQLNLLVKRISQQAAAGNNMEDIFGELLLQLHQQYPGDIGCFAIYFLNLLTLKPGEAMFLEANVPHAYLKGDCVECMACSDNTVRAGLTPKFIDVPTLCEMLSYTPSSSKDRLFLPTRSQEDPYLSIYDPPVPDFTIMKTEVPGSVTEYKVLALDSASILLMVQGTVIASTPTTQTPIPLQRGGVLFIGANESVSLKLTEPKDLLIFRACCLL

[22] = molecular target: Aryl hydrocarbon receptor (Homo sapiens, UniProt P35869); details: Potency;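 also: confirmatory quantitative high-throughput screen measuring activation of the AhR signaling pathway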
HeLa = assay: HeLa cell cytotoxicity, dose response, cytotoxicity control for MITF activator project, CellTiter-Glo luminescence, cherry-pick samples (AID 540259); assay type: functional, cell-based; details: Homo sapiens
Cytochrome P450 3A4 = Cytochrome P450 3A4 (Homo sapiens, UniProt P08684); details: Potency;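 also: confirmatory qHTS run detecting inhibitors and substrates of CYP3A4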
Sequence of Cytochrome P450 3A4 (P08684 whole entry): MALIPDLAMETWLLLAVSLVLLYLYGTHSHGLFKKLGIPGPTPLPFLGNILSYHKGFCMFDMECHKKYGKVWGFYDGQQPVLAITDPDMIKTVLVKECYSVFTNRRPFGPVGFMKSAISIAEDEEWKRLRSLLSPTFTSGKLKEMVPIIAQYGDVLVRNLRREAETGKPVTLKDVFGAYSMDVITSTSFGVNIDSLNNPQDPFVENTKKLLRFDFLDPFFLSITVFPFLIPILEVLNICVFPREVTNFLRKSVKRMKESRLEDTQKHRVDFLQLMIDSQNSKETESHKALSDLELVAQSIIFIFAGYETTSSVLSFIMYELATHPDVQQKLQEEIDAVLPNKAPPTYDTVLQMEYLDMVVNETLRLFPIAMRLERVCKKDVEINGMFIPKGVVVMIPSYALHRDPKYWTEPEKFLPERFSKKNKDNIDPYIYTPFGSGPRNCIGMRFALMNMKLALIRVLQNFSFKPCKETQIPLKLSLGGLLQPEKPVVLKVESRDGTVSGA

Sequence of 72 kDa type IV collagenase (P08253 whole entry): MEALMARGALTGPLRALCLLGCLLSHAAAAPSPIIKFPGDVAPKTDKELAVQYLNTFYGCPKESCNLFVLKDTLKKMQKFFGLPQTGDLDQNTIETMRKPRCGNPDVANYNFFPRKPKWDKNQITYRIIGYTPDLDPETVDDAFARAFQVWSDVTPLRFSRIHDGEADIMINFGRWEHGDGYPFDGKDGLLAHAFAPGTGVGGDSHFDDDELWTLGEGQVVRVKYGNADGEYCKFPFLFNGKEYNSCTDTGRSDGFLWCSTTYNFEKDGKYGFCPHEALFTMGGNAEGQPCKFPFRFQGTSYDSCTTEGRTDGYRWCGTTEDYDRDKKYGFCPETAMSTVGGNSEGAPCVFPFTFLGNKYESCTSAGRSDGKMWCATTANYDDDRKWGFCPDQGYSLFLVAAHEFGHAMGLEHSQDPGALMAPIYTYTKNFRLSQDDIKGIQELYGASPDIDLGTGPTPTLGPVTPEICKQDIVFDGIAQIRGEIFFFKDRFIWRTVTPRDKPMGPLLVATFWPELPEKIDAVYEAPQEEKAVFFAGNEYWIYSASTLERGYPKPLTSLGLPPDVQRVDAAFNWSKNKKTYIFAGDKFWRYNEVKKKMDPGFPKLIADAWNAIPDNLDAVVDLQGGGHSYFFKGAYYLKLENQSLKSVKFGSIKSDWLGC

O=[N+]([O-])c1ccc(O)c(/C=N/NC2=NS(=O)(=O)c3ccccc32)c1
IC50 (Nonstructural protein 1): 2.35 µM (active) | IC50 [1]: 5.41 µM (active) | IC50 [2]: 34.9 µM (active) | IC50 (Prothrombin): 36.8 µM (active)

O=C(Cn1cc(C(=O)COc2ccccc2)c2ccccc21)NCc1ccco1
IC50 [1]: > 100 µM (inactive) | IC50 [2]: 47.6 µM (active) | IC50 (Prothrombin): 41.3 µM (active)

CCOC(=O)c1c(NC(=O)COc2cccc3c2CCN(C)C3=O)sc2c1CCC2
IC50 (Protein Wnt-3a): 6.12 µM (active) | AC50 [3]: 41.7 µM (active) | AC50 [4]: 22.8 µM (active) | IC50 [5]: > 64.6 µM (inactive) | IC50 (Melanocortin receptor 4): > 64.6 µM (inactive) | AC50 [6]: 5.44 µM (active)

COc1ccc(C(=O)Nc2ccc3c(c2)C(=O)c2ccccc2C3=O)cc1OC
IC50 [7]: > 100 µM (inactive)

Oc1nc2ccccc2n1C1CCN(C(c2nnnn2C2CCCCC2)C2CC2)CC1 (stereo not given)
IC50 [8]: 3.14 µM (active)

CCNC1CCC(Nc2ccnc3cc(Cl)ccc23)CC1 (stereo not given)
AC50 [9]: 7.52 µM (active) | AC50 [10]: 25.9 µM (active)

CC1(C)OC(=O)C(=Cc2ccc(-c3ccc(S(N)(=O)=O)cc3)o2)C(=O)O1
IC50 [11]: 41.8 µM (active) | IC50 [5]: > 64.6 µM (inactive) | IC50 (Melanocortin receptor 4): > 64.6 µM (inactive)

CCc1cccc2c(C(=O)COC(=O)c3cnc(C)cn3)c[nH]c12
AC50 [12]: 20 µM (active)

C[C@H](O)[C@@H]1C(=O)N2CCc3c([nH]c4ccccc34)[C@@H]2C[C@@H]1N(C)Cc1ccc2c(c1)OCO2
IC50 [13]: 0.672 µM (active) | IC50 [14]: > 83.3 µM (inactive) | IC50 [15]: 1.34 µM (active) | IC50 [16]: 83.3 µM (inactive)

CC1=C(C)/C(=N\OS(=O)(=O)c2ccc(C)cc2)C=CC1=O
IC50 (Beta Lactamase): 31 µM (inactive) | EC50 [17]: 37.6 µM (active) | EC50 [18]: 35.2 µM (active) | AC50 [19]: 1.61 µM (active) | AC50 (INS1): 2.15 µM (active) | IC50 [20]: 3.42 µM (active) | IC50 [21]: 5.11 µM (active)

Nc1ccc2cc3ccccc3cc2c1 [2-AMINOANTHRACENE]
AC50 [22]: 25.1 µM (inconclusive) | AC50 (HeLa): 122 µM (active) | AC50 (Cytochrome P450 3A4): 15.8 µM (inconclusive)
